Tests used:
COLO 205 = assay: NCI-60 5-dose screen; format: cell-based, human; conditions: for GI50 / CC50: Homo sapiens; for CC50: read-out: LC50 (the source's name)
RXF 393 = assay: NCI-60 5-dose screen; format: cell-based, human; conditions: for GI50 / CC50: Homo sapiens; for CC50: read-out: LC50 (the source's name)
CAKI-1 = assay: NCI-60 5-dose screen; format: cell-based, human; conditions: for GI50 / CC50: Homo sapiens; for CC50: read-out: LC50 (the source's name)
BT-549 = assay: NCI-60 5-dose screen; format: cell-based, human; conditions: for GI50 / CC50: Homo sapiens; for CC50: read-out: LC50 (the source's name)
T-47D = assay: NCI-60 5-dose screen; format: cell-based, human; conditions: for GI50 / CC50: Homo sapiens, T47D; for CC50: read-out: LC50 (the source's name)
A498 = assay: NCI-60 5-dose screen; format: cell-based, human; conditions: for GI50 / CC50: Homo sapiens; for CC50: read-out: LC50 (the source's name)
SK-MEL-2 = assay: NCI-60 5-dose screen; format: cell-based, human; conditions: for GI50 / CC50: Homo sapiens; for CC50: read-out: LC50 (the source's name)
HCT-116 = assay: NCI-60 5-dose screen; format: cell-based, human; conditions: for GI50 / CC50: Homo sapiens; for CC50: read-out: LC50 (the source's name)
M14 = assay: NCI-60 5-dose screen; format: cell-based, human; conditions: for GI50 / CC50: Homo sapiens; for CC50: read-out: LC50 (the source's name)
TK-10 = assay: NCI-60 5-dose screen; format: cell-based, human; conditions: for GI50 / CC50: Homo sapiens; for CC50: read-out: LC50 (the source's name)
SK-OV-3 = assay: NCI-60 5-dose screen; format: cell-based, human; conditions: for GI50 / CC50: Homo sapiens; for CC50: read-out: LC50 (the source's name)
OVCAR-3 = assay: NCI-60 5-dose screen; format: cell-based, human; conditions: for GI50 / CC50: Homo sapiens; for CC50: read-out: LC50 (the source's name)
SR = assay: NCI-60 5-dose screen; format: cell-based, human; conditions: for GI50 / CC50: Homo sapiens; for CC50: read-out: LC50 (the source's name)
SNB-75 = assay: NCI-60 5-dose screen; format: cell-based, human; conditions: for GI50 / CC50: Homo sapiens; for CC50: read-out: LC50 (the source's name)
HOP-92 = assay: NCI-60 5-dose screen; format: cell-based, human; conditions: for GI50 / CC50: Homo sapiens; for CC50: read-out: LC50 (the source's name)
NCI-H226 = assay: NCI-60 5-dose screen; format: cell-based, human; conditions: for GI50 / CC50: Homo sapiens; for CC50: read-out: LC50 (the source's name)
CCRF-CEM = assay: NCI-60 5-dose screen; format: cell-based; conditions: Homo sapiens; for CC50: read-out: LC50 (the source's name)
SF-268 = assay: NCI-60 5-dose screen; format: cell-based, human; conditions: for GI50 / CC50: Homo sapiens; for CC50: read-out: LC50 (the source's name)
LOX IMVI = assay: NCI-60 5-dose screen; format: cell-based, human; conditions: for GI50 / CC50: Homo sapiens; for CC50: read-out: LC50 (the source's name)
SW-620 = assay: NCI-60 5-dose screen; format: cell-based, human; conditions: for GI50 / CC50: Homo sapiens; for CC50: read-out: LC50 (the source's name)
OVCAR-4 = assay: NCI-60 5-dose screen; format: cell-based, human; conditions: for GI50 / CC50: Homo sapiens; for CC50: read-out: LC50 (the source's name)
IGROV1 = assay: NCI-60 5-dose screen; format: cell-based, human; conditions: for GI50 / CC50: Homo sapiens; for GI50: IGROV-1; for CC50: IGROV-1, read-out: LC50 (the source's name)
HL-60(TB) = assay: NCI-60 5-dose screen; format: cell-based, human; conditions: for GI50 / CC50: Homo sapiens; for CC50: read-out: LC50 (the source's name)
HS 578T = assay: NCI-60 5-dose screen; format: cell-based, human; conditions: for GI50 / CC50: Homo sapiens; for CC50: read-out: LC50 (the source's name)
KM12 = assay: NCI-60 5-dose screen; format: cell-based, human; conditions: for GI50 / CC50: Homo sapiens; for CC50: read-out: LC50 (the source's name)
A549/ATCC = assay: NCI-60 5-dose screen; format: cell-based, human; conditions: for GI50 / CC50: Homo sapiens; for CC50: read-out: LC50 (the source's name)
PC-3 = assay: NCI-60 5-dose screen; format: cell-based, human; conditions: for GI50 / CC50: Homo sapiens; for CC50: read-out: LC50 (the source's name)
U251 = assay: NCI-60 5-dose screen; format: cell-based, human; conditions: for GI50 / LC50 (50% lethal concentration): Homo sapiens, U-251
HOP-62 = assay: NCI-60 5-dose screen; format: cell-based, human; conditions: for GI50 / CC50: Homo sapiens; for CC50: read-out: LC50 (the source's name)
[1] = tested on: Gram-positive and Gram-negative bacteria; set-up: method as in PMID 38398524; conditions: cited from earlier work

O=C1C(Nc2ccc(I)cc2)=CC(c2ccc(C(F)(F)F)cc2)N1c1ccc(I)cc1 (centres unmarked) [3e]
TGI (COLO 205): >100 µM | GI50 (COLO 205): 4.57 µM | CC50 (COLO 205): > 100 µM | TGI (RXF 393): >100 µM | GI50 (RXF 393): 4.23 µM | CC50 (RXF 393): > 100 µM | TGI (CAKI-1): >100 µM | GI50 (CAKI-1): 3.72 µM | CC50 (CAKI-1): > 100 µM | TGI (BT-549): >100 µM | GI50 (BT-549): 9.61 µM | CC50 (BT-549): > 100 µM | TGI (T-47D): 7.57 µM | GI50 (T-47D): 2740 nM | CC50 (T-47D): > 100 µM | TGI (A498): 3.56 µM | GI50 (A498): 1950 nM | CC50 (A498): 6.5 µM | TGI (SK-MEL-2): >100 µM | GI50 (SK-MEL-2): > 100 µM | CC50 (SK-MEL-2): > 100 µM | TGI (HCT-116): >100 µM | GI50 (HCT-116): 5.92 µM | CC50 (HCT-116): > 100 µM | TGI (M14): >100 µM | GI50 (M14): 8.94 µM | CC50 (M14): > 100 µM | TGI (TK-10): >100 µM | GI50 (TK-10): > 100 µM | CC50 (TK-10): > 100 µM | TGI (SK-OV-3): >100 µM | GI50 (SK-OV-3): > 100 µM | CC50 (SK-OV-3): > 100 µM | TGI (OVCAR-3): >100 µM | GI50 (OVCAR-3): 7.48 µM | CC50 (OVCAR-3): > 100 µM | TGI (SR): >100 µM | GI50 (SR): 2840 nM | CC50 (SR): > 100 µM | TGI (SNB-75): 5.06 µM | GI50 (SNB-75): 2600 nM | CC50 (SNB-75): 9.85 µM | TGI (HOP-92): 7.22 µM | GI50 (HOP-92): 3.15 µM | CC50 (HOP-92): > 100 µM | TGI (NCI-H226): >100 µM | GI50 (NCI-H226): 8.48 µM | CC50 (NCI-H226): > 100 µM | GI50 (CCRF-CEM): 3.35 µM | CC50 (CCRF-CEM): > 100 µM | TGI (SF-268): >100 µM | GI50 (SF-268): 4.66 µM | CC50 (SF-268): > 100 µM | TGI (LOX IMVI): >100 µM | GI50 (LOX IMVI): > 100 µM | CC50 (LOX IMVI): > 100 µM | TGI (SW-620): >100 µM | GI50 (SW-620): > 100 µM | CC50 (SW-620): > 100 µM | TGI (OVCAR-4): 4.41 µM | GI50 (OVCAR-4): 1820 nM | CC50 (OVCAR-4): > 100 µM | TGI (IGROV1): >100 µM | GI50 (IGROV1): > 100 µM | CC50 (IGROV1): > 100 µM | TGI (HL-60(TB)): >100 µM | GI50 (HL-60(TB)): 4.48 µM | CC50 (HL-60(TB)): > 100 µM | TGI (HS 578T): 9.97 µM | GI50 (HS 578T): 3.45 µM | CC50 (HS 578T): > 100 µM | TGI (KM12): >100 µM | GI50 (KM12): > 100 µM | CC50 (KM12): > 100 µM | TGI (A549/ATCC): >100 µM | GI50 (A549/ATCC): > 100 µM | CC50 (A549/ATCC): > 100 µM | TGI (PC-3): >100 µM | GI50 (PC-3): 9.99 µM | CC50 (PC-3): > 100 µM | TGI (U251): >100 µM | GI50 (U251): 8.97 µM | LC50 (50% lethal concentration) (U251): > 100 µM | TGI (HOP-62): >100 µM | GI50 (HOP-62): > 100 µM | CC50 (HOP-62): > 100 µM

O=C1C(Nc2ccc(I)cc2)=CC(c2ccc(O)cc2)N1c1ccc(I)cc1 (centres unmarked) [3g]
antibacterial activity (in words) [1]: highest antibacterial activity

O=C1C(Nc2ccc(I)cc2)=CC(c2ccc(O)c(O)c2)N1c1ccc(I)cc1 (centres unmarked) [3h]
TGI (COLO 205): >100 µM | GI50 (COLO 205): 6.65 µM | CC50 (COLO 205): > 100 µM | TGI (RXF 393): >100 µM | GI50 (RXF 393): 6.25 µM | CC50 (RXF 393): > 100 µM | TGI (CAKI-1): >100 µM | GI50 (CAKI-1): > 100 µM | CC50 (CAKI-1): > 100 µM | TGI (BT-549): >100 µM | GI50 (BT-549): > 100 µM | CC50 (BT-549): > 100 µM | TGI (T-47D): >100 µM | GI50 (T-47D): 2410 nM | CC50 (T-47D): > 100 µM | TGI (A498): >100 µM | GI50 (A498): > 100000 nM | CC50 (A498): > 100 µM | TGI (SK-MEL-2): >100 µM | GI50 (SK-MEL-2): 6.64 µM | CC50 (SK-MEL-2): > 100 µM | TGI (HCT-116): >100 µM | GI50 (HCT-116): 7.43 µM | CC50 (HCT-116): > 100 µM | TGI (M14): >100 µM | GI50 (M14): 5.34 µM | CC50 (M14): > 100 µM | TGI (TK-10): >100 µM | GI50 (TK-10): > 100 µM | CC50 (TK-10): > 100 µM | TGI (SK-OV-3): >100 µM | GI50 (SK-OV-3): 7.6 µM | CC50 (SK-OV-3): > 100 µM | TGI (OVCAR-3): >100 µM | GI50 (OVCAR-3): 9.16 µM | CC50 (OVCAR-3): > 100 µM | TGI (SR): 2.99 µM | GI50 (SR): 1550 nM | CC50 (SR): 5.75 µM | TGI (SNB-75): >100 µM | GI50 (SNB-75): > 100000 nM | CC50 (SNB-75): > 100 µM | TGI (HOP-92): 8.97 µM | GI50 (HOP-92): 4.08 µM | CC50 (HOP-92): > 100 µM | TGI (NCI-H226): >100 µM | GI50 (NCI-H226): > 100 µM | CC50 (NCI-H226): > 100 µM | GI50 (CCRF-CEM): 3.09 µM | CC50 (CCRF-CEM): 3.61 µM | TGI (SF-268): >100 µM | GI50 (SF-268): 6.04 µM | CC50 (SF-268): > 100 µM | TGI (LOX IMVI): >100 µM | GI50 (LOX IMVI): > 100 µM | CC50 (LOX IMVI): > 100 µM | TGI (SW-620): >100 µM | GI50 (SW-620): > 100 µM | CC50 (SW-620): > 100 µM | TGI (OVCAR-4): >100 µM | GI50 (OVCAR-4): 3270 nM | CC50 (OVCAR-4): > 100 µM | TGI (IGROV1): >100 µM | GI50 (IGROV1): > 100 µM | CC50 (IGROV1): > 100 µM | TGI (HL-60(TB)): 4.28 µM | GI50 (HL-60(TB)): 2.19 µM | CC50 (HL-60(TB)): 8.38 µM | TGI (HS 578T): >100 µM | GI50 (HS 578T): 6.65 µM | CC50 (HS 578T): > 100 µM | TGI (KM12): >100 µM | GI50 (KM12): 5.22 µM | CC50 (KM12): > 100 µM | TGI (A549/ATCC): >100 µM | GI50 (A549/ATCC): > 100 µM | CC50 (A549/ATCC): > 100 µM | TGI (PC-3): >100 µM | GI50 (PC-3): 8.83 µM | CC50 (PC-3): > 100 µM | TGI (U251): >100 µM | GI50 (U251): > 100 µM | LC50 (50% lethal concentration) (U251): > 100 µM | TGI (HOP-62): >100 µM | GI50 (HOP-62): > 100 µM | CC50 (HOP-62): > 100 µM

— article PMC12736255, “Reinvestigating Pyrrol-2-One-Based Compounds: From Antimicrobial Agents to Promising Antitumor Candidates” (Pharmaceuticals, 2025)
